In general, melting point refers to the temperature of the solid-liquid transition. As to `C#CCN(c1ccc(C(=O)O)cc1)C1CCc2cc3nc(C)[nH]c(=O)c3cc21` (racemic) [Example 1, 4{N-[(6RS)-2-Methyl-4-oxo-3,4,7,8-tetrahydro-6H-cyclopenta[g]quinazolin-6-yl]-N-(prop-2-ynyl)amino}benzoic acid], the melting point was 305 to 307 °C.

`C#CCN(c1ccc(C(=O)N[C@@H](CCC(=O)N[C@H](CCC(=O)O)C(=O)O)C(=O)O)cc1)C1CCc2cc3nc(COC)[nH]c(=O)c3cc21` (mixture of isomers) [Example 2, N-{N-{4-[N-((6RS)-2-Methoxymethyl4oxo-3,4,7,8-tetrahydro-6H-cyclopent[g]quinazolin-6-yl)-N-(prop-2-ynyl)amino]-benzoyl}-L-γ-glutamyl}-D-glutamic acid] returned a melting point of 150 to 155 °C.

On to `C#CCN(c1ccc(C(=O)N[C@@H](CCC(=O)N[C@H](CCC(=O)O)C(=O)O)C(=O)O)c(F)c1)C1CCc2cc3nc(C)[nH]c(=O)c3cc21` (mixture of isomers) [Example 4, N-{N-{4[N-((6RS)-2-methyl-4-oxo-3,4,7,8-tetra-hydro-6H-cyclopental[g]quinazolin-6-yl)-N-(prop2-ynyl)amino]-2-fluoro-benzoyl}-L-γ-glutamyl}-D-glutamic acid], for which the melting point is 175 °C (dec.).

For the compound `C#CCN(c1ccc(C(=O)N[C@@H](CCC(=O)N(C)[C@@H](CCC(=O)O)C(=O)O)C(=O)O)cc1)C1CCc2cc3nc(CO)[nH]c(=O)c3cc21` (mixture of isomers) [Example 5, N-{N-{4-[N-((6RS)-2-hydroxymethyl-4-oxo-3,4,7,8-tetrahydro-6H-cyclopenta[g]quinazolin-6yl)-N-(prop-2-ynyl)amino]-benzoyl}-L-γ-glutamyl}-N-methyl-L-glutamic acid], the melting point was > 165 °C (dec.).
